From patent US9238650B2, “Solid forms of a pyrido-pyrimidinium inner salt” (E. I. DU PONT DE NEMOURS AND COMPANY, priority 2012, dated 2016)
Entries after “also recorded” stand apart in the source; their conditions may differ. Counter-ions that a name gives are not always drawn.

How the values were obtained:
Assay type in all cases: physicochemical
[1] = Solubility of Compound 1 in the test solvent, filtrate analyzed by HPLC; details: 22° C., 5 days, label = starting polymorph form(s)
Procedure: HPLC was used to determine the purity of Compound 1 and intermediates. An Agilent 1100/1200 series HPLC system with DAD/UV detector and reverse-phase column (Agilent Zorbax® SB C8 (4.6×150) mm, 3.5 μm, Part No. 863953-906) was used. Flow rate was 1 mL/min, run time 27 min, injection volume 3.0 μL, and the column oven temperature was 40° C. A mobile phase gradient according to Table 1 was used wherein mobile phase A was 0.03% by volume orthophosphoric acid and mobile Phase B was acetonitrile (HPLC grade). Mobile phase A was prepared by thoroughly mixing 0.3 mL of orthophosphoric acid (AR grade) with 999.7 mL of deionized water. Standard solutions were prepared by weighing 22.0±2.0 mg of the analytical standard in duplicate into separate 50-mL volumetric flasks, dissolving and diluting with the diluent. Samples were prepared by weighing 40.0±2.0 mg of the sample into a 100 mL standard volumetric flask, dissolving and diluting with the diluent. For analysis, the HPLC system and column were equilibrated with initial mobile phase. In the chromatographic sequence, blank samples, standard samples and test samples were run. The retention time for Compound 1 was about 22.2 min. Peaks appearing in the blank sample were not integrated, all other peaks were integrated and a % purity reported from the sample chromatogram. For wt % determination the concentration of test sample was calibrated against the standard sample.
(§1) Polymorph Forms A and B of Compound 1 were subjected to non-competitive and competitive interconversion experiments. […] For the competitive experiments, polymorph Forms A and B were mixed together and studied for the potential conversion to the more thermodynamically stable form. The starting polymorph form(s) were mixed with various solvents for 5 days at 22° C., and then filtered. The filtrate was analyzed by HPLC to determine the solubility of Compound 1 in the test solvent. The solids were dried and analyzed by pXRD.

[2] = Solid-liquid separation efficiency: time to complete filtration on a lab nutsche filter; details: for Filtration time: time required to complete filtration of 90 g from reaction mass
Procedure: In separate experiments, about 90 grams of Polymorph Forms A and B of Compound 1 were prepared according to PREPARATION EXAMPLE 1 and 2, respectively. The solids were filtered from their reaction mass using a lab nutsche filter. The times to complete the filtrations (indicated by no further liquid dripping from the filter) were measured and are reported in Table 12.

[3] = Crystal density by helium gas pygnometry
Source text: However, once Form B has converted to Form A in the slurry, the particles start to settle to the bottom of the flask rapidly after stirring is turned off indicating increased particle size of the Form A crystals. […] High particle size and settling velocities are important process advantages for solid-liquid separation operations in commercial manufacturing. Large average particle size improve filtration and centrifugation steps by increased filtration speeds, higher throughputs, lower propensity to filter cake cracking and resulting filtrate by-passing, increased cake wash efficiency and increased product purity.

[4] = Temperature-dependent X-ray powder diffraction of polymorph Form A; details: pure solid, heated from 25° C. to the melting point at 10° C. per minute
Procedure: To assess the stability of polymorph Form A of Compound 1 with respect to temperature, X-ray powder diffraction patterns were obtained while heating a sample of Form A from 25° C. to above its melting point. The measurement was conducted at the 5-IDD beam line at the Advanced Photon Source synchrotron located at the Argonne National Laboratory (Argonne, Ill., USA). A Differential-Scanning calorimeter (DSC, Model DSC600, Linkam Scientific Instruments, Tadworth, U.K.) was mounted in vertical orientation to allow insertion of the DSC into the X-ray beam. The DSC was positioned in the beam line to accept a 100-200 μm square beam under high vacuum. The standard quartz window was replaced with polyimide film (Kapton®, 8 μm thickness, DuPont, Wilmington, Del., USA). An internal thermocouple was installed for temperature recording. A circular charged couple device (CCD) detector (Model Mar165, 165 mm diameter, Marresearch GmbH, Norderstedt, Germany) was used to detect the X-rays scattered from the sample. The detector was equipped with an aluminum cone that covered the detector and extended 100 mm from the face of the detector. This cone was quipped with a beam stop support and 5×3 mm lead beam stop. The cone was continuously purged with helium to minimize air scattering. […]

[5] = Particle size distribution by laser diffraction particle size analyzer after dispersion in deionized water; details: dispersed in deionized water; for D50: median particle size; for D[4, 3]: volume-weighted mean particle size
Procedure: After the observation of increased settling velocity of Polymorph Form A compared to Form B (see CHARACTERIZATION EXAMPLE 9), the particle size distributions of the two forms were measured. Form B of Compound 1 was prepared according to PREPARATION EXAMPLE 2. Some of the Form B thus prepared was converted to Form A according to PREPARATION EXAMPLE 5. The particle size distribution of both Form A and B samples were determined after dispersion in deionized water using a laser diffraction particle size analyzer (model Mastersizer 2000 by Malvern Instruments, Malvern, UK). The particle size distribution parameters D10, D50 and D90 are reported in Table 13 below, wherein D50 represents the median particle size of the distribution, i.e. 50% of the particles are smaller and 50% are larger than that size. D10 indicates the particle size at which 10% of all particles are smaller than that size. Similarly, D90 indicates the particle size at which 90% of all particles are smaller than that size. The volume-weighted mean particle sizes D[4,3] are also reported.

[6] = Relative stability (non-competitive and competitive interconversion) of polymorph Forms A and B in various solvents at 22° C., solids analyzed by pXRD; details: concluded from conversion of Form B to Form A in solvents at 22° C.
Procedure: as §1
A detailed description of the individual experiments for Examples 6a to 6j is given below.
(§2) In Example 6a, Form B of Compound 1 (0.3 g) was mixed with acetone (5 g) at 22° C. for 5 days. The slurry was then filtered through a syringe filter (0.45 μm glass fiber, type Whatman GE Autovial) and dried in a vacuum oven at 40° C. for 48 hours. Analysis by pXRD indicated Form A of compound 1.
as §2, with “6b,” for “6a,”, “B (0.3 g) and Form A (0.01 g)” for “B”, “were” for “(0.3 g) was”, “Compound” for “compound”
In Example 6c, Form B (0.3 g) of Compound 1 was mixed with tetrahydrofuran (5 g) at 22° C. for 5 days. […]

Concentration of Compound 1 in filtrate ([1]; acetone) [wt %]	Concentration of Compound 1 in filtrate ([1]; ethyl acetate) [wt %]	Concentration of Compound 1 in filtrate ([1]; tetrahydrofuran) [wt %]	Concentration of Compound 1 in filtrate ([1]; toluene) [wt %]	Concentration of Compound 1 in filtrate ([1]; water) [wt %]	Filtration time [2] [min]	density [3] [g/mL]	D10 [5] [μm]	D90 [5] [μm]	D50 [5] [μm]	D[4, 3] [5] [μm]	Filtration time relative to Polymorph Form A ([2]; about 90 grams)	Structure (SMILES)	Stability of the crystal form with respect to temperature (pXRD while heating) [4]	Relative thermodynamic stability [6]
0.34	0.09	1.01	0.023	<0.01	–	–	–	–	–	–	–	Cc1cccn2c(=O)c(-c3cc(Cl)cc(Cl)c3)c([O-])[n+](Cc3cnc(Cl)s3)c12 [B + seed A, 1-[(2-chloro-5-thiazolyl)methyl]-3-(3,5-dichlorophenyl)-2-hydroxy-9-methyl-4-oxo-4H-pyrido[1,2-a]pyrimidinium inner salt]	–	–
–	–	–	–	–	0.9	1.597	13	73	34	39	–	Cc1cccn2c(=O)c(-c3cc(Cl)cc(Cl)c3)c([O-])[n+](Cc3cnc(Cl)s3)c12 [Form A, 1-[(2-chloro-5-thiazolyl)methyl]-3-(3,5-dichlorophenyl)-2-hydroxy-9-methyl-4-oxo-4H-pyrido[1,2-a]pyrimidinium inner salt]	no crystal form conversion to another polymorph occurred; also recorded: physically and chemically stable in its pure solid form	more thermodynamically stable than Form B
0.34	0.18	1.03	0.049	<0.01	3.0	1.582	0.6	19	3.2	6.8	more than 3 times	Cc1cccn2c(=O)c(-c3cc(Cl)cc(Cl)c3)c([O-])[n+](Cc3cnc(Cl)s3)c12 [Form B, 1-[(2-chloro-5-thiazolyl)methyl]-3-(3,5-dichlorophenyl)-2-hydroxy-9-methyl-4-oxo-4H-pyrido[1,2-a]pyrimidinium inner salt]	–	–
